Assay results reported in patent US12209072B2, “Cyclopentyl acids as LPA antagonists” (BRISTOL-MYERS SQUIBB COMPANY, priority 2018, dated 2025).

Target: T1, human LPA1 (Homo sapiens, UniProt Q92633)
T1 construct: expressed in transfected cells; host or cells: Chinese hamster ovary (CHO) cells
Test: LPA1 functional antagonist assay (LPA-induced calcium flux)
Type: cell-based
Settings: CHO cells overexpressing human LPA1; inhibition of calcium flux induced by 10 nM LPA; read-out: hLPA1 IC50
Description: The effectiveness of compounds of the present invention as LPA1 inhibitors can be determined in an LPA1 functional antagonist assay as follows:
Chinese hamster ovary cells overexpressing human LPA1 were plated overnight (15,000 cells/well) in poly-D-lysine coated 384-well microplates (Greiner bio-one, Cat #781946) in DMEM/F12 medium (Gibco, Cat #11039). Following overnight culture, cells were loaded with calcium indicator dye (AAT Bioquest Inc, Cat #34601) for 30 minutes at 37° C. The cells were then equilibrated to room temperature for 30 minutes before the assay. Test compounds solubilized in DMSO were transferred to 384 well non-binding surface plates (Corning, Cat #3575) using the Labcyte Echo acoustic dispense and diluted with assay buffer [1×HBSS with calcium/magnesium (Gibco Cat #14025-092), 20 mM HEPES (Gibco Cat #15630-080) and 0.1% fatty acid free BSA (Sigma Cat #A9205)] to a final concentration of 0.5% DMSO. Diluted compounds were added to the cells by FDSS6000 (Hamamatsu) at final concentrations ranging from 0.08 nM to 5 μM. and were then incubated for 20 min at room temperature at which time LPA (Avanti Polar Lipids Cat #857130C) was added at final concentrations of 10 nM to stimulate the cells. The compound IC50 value was defined as the concentration of test compound which inhibited 50% of the calcium flux induced by LPA alone. IC50 values were determined by fitting data to a 4-parameter logistic equation (GraphPad Prism, San Diego CA).

T1 sequence (Q92633 whole entry): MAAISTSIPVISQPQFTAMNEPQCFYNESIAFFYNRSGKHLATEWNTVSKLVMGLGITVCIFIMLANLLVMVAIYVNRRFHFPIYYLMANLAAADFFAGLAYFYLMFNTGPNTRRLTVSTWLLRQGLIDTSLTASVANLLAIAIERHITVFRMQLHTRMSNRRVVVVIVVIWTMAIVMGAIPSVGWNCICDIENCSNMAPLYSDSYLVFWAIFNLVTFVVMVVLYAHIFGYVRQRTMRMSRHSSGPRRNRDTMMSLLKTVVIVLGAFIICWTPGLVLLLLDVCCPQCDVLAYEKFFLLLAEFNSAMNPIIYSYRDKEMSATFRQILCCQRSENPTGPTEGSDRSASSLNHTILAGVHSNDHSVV

Question: For `CN(CC1CCC1)C(=O)OCc1c(-c2ccc(O[C@@H]3CC[C@@H](C(=O)O)C3)cn2)nnn1C` (racemic) [Example 25, (±)-trans-3-((6-(5-((((cyclobutyl-methyl)(methyl)carbamoyl)oxy)methyl)-1-methyl-1H-1,2,3-triazol-4-yl)pyridin-3-yl)oxy)cyclopentane carboxylic acid], which IC50 is on record?
Answer: 354 nM

Question: `Cc1noc(-c2ccc(OC3CCC(C(=O)O)C3)cn2)c1CNc1nccc(-c2ccccc2)n1` (single isomer, unassigned) [Example 44] was tested. Which IC50 did it give?
Answer: 158 nM

Question: How did the IC50 turn out when `Cc1nc(-c2nnn(C)c2COC(=O)N(C)C2(C)CC2)ccc1O[C@H]1CC[C@H](CC(=O)O)C1` (racemic) [Example 57, (±)-trans-2-[3-({2-methyl-6-[1-methyl-5-({[methyl(1-methylcyclo-propyl)carbamoyl]oxy}methyl)-1H-1,2,3-triazol-4-yl]pyridin-3-yl}oxy)cyclopentyl]acetic acid] was run?
Answer: 295 nM

Question: With `Cc1nc(-c2onc(C)c2COC(=O)N(C)C2CCCC2)ccc1O[C@H]1CC[C@H](C(C)C(=O)O)C1` (mixture of isomers) [Example 50, (±)-trans-2-[3-({6-[4-({[cyclopentyl(methyl)carbamoyl]oxy}methyl)-3-methyl-1,2-oxazol-5-yl]-2-methyl-pyridin-3-yl}oxy)cyclopentyl]propanoic acid] as the molecule, how does the IC50 read?
Answer: 20 nM

Question: For `Cc1noc(-c2ccc(OC3CCC(C(=O)O)C3)cn2)c1CNc1nccc(-c2ccccc2)n1` (centres unmarked) [Example 42, 3-((6-(3-methyl-4-(((4-phenylpyrimidin-2-yl)amino)methyl)isoxazol-5-yl)pyridin-3-yl)oxy)cyclopentane-1-carboxylic Acid], which IC50 is on record?
Answer: 26 nM

Question: With `Cc1nc(-c2nnn(C)c2COC(=O)N(C)CC2CCC2)ccc1OC[C@H]1CC[C@@H](C(=O)O)C1` (single isomer, unassigned) [Example 32] as the molecule, how does the IC50 read?
Answer: 9.7 nM

Question: `Cc1nc(-c2onc(C)c2COC(=O)N(C)C2CCCC2)ccc1O[C@H]1CC[C@H](C(C)C(=O)O)C1` (mixture of isomers) [Example 51, (±)-trans-2-[3-({6-[4-({[cyclopentyl(methyl)carbamoyl]oxy}methyl)-3-methyl-1,2-oxazol-5-yl]-2-methyl-pyridin-3-yl}oxy)cyclopentyl]propanoic acid] was tested. Which IC50 did it give?
Answer: 24 nM

Question: With `Cc1nc(-c2nnn(C)c2COC(=O)N(C)CC2CCCC2)cnc1O[C@@H]1CC[C@@H](C(=O)O)C1` (racemic) [Example 14, (±)-trans-3-((5-(5-((((cyclo-pentylmethyl)(methyl)carbamoyl)oxy)methyl)-1-methyl-1H-1,2,3-triazol-4-yl)-3-methylpyrazin-2-yl)oxy) cyclopentanecarboxylic Acid] as the molecule, how does the IC50 read?
Answer: 184 nM

Question: Which IC50 does the source give for `Cc1noc(-c2ccc(OC[C@@H]3CC[C@H](C(=O)O)C3)cc2)c1COC(=O)N(C)C1CCCC1` (relative stereo) [Example 41, Cis-3-((4-(4-(((cyclopentyl(methyl)carbamoyl)oxy)methyl)-3-methylisoxazol-5-yl)phenoxy)methyl)cyclopentane-1-carboxylic acid] here?
Answer: 325 nM

Question: `Cc1noc(-c2ccc(O[C@@H]3CC[C@@H](C(=O)O)C3)cn2)c1CNc1nccc(-c2ccccn2)n1` (relative stereo) [Example 34, trans-3-((6-(3-methyl-4-(((4-(pyridin-2-yl)pyrimidin-2-yl)amino)methyl)isoxazol-5-yl)pyridin-3-yl)oxy)cyclo-pentane-1-carboxylic acid] was tested. Which IC50 did it give?
Answer: 247 nM

Question: With `Cc1nc(-c2onc(C)c2COC(=O)N(C)C2CCCC2)ccc1O[C@H]1CCC[C@H]1CC(=O)O` (racemic) [Example 85, (±)-Cis-2-(2-((6-(4-(((cyclopentyl(methyl)carbamoyl)oxy)methyl)-3-methylisoxazol-5-yl)-2-methylpyridin-3-yl)oxy)cyclopentyl)acetic Acid] as the molecule, how does the IC50 read?
Answer: 29 nM

Question: For `Cn1nnc(-c2ccc(OC[C@@H]3CC[C@H](C(=O)O)C3)cn2)c1CNc1nccc(-c2ccccn2)n1` (relative stereo) [Example 37, cis-3-(((6-(1-methyl-5-(((4-(pyridin-2-yl)pyrimidin-2-yl)amino)methyl)-1H-1,2,3-triazol-4-yl)pyridin-3-yl)oxy)methyl)cyclopentane-1-carboxylic acid], which IC50 is on record?
Answer: 172 nM

Question: Which IC50 does the source give for `Cc1nc(-c2nnn(C)c2CNC(=O)OCc2ccccc2)ccc1O[C@@H]1CC[C@@H](C(=O)O)C1` (racemic) [Example 20, (±)-trans-3-((6-(5-((((benzyloxy)carbonyl)amino)methyl)-1-methyl-1H-1,2,3-triazol-4-yl)-2-methyl-pyridin-3-yl)oxy)cyclopentane carboxylic acid] here?
Answer: 39.7 nM

Question: For `Cc1noc(-c2ccc(O[C@@H]3CC[C@@H](C(=O)O)C3)cc2)c1COC(=O)N(C)C1CCCC1` (racemic) [Example 3, (±)-Trans-3-(4-(4-(((cyclopentyl(methyl)carbamoyl)oxy)methyl)-3-methylisoxazol-5-yl)phenoxy)cyclopentane-1-carboxylic Acid], which IC50 is on record?
Answer: 171 nM

Question: With `Cc1noc(-c2ccc(OC[C@@H]3CC[C@H](C(=O)O)C3)cn2)c1CNc1nccc(-c2ccccn2)n1` (relative stereo) [Example 33, cis-3-(((6-(3-methyl-4-(((4-(pyridin-2-yl)pyrimidin-2-yl)amino)methyl)isoxazol-5-yl)pyridin-3-yl)oxy)methyl)cyclopentane-1-carboxylic acid] as the molecule, how does the IC50 read?
Answer: 40 nM

Question: How did the IC50 turn out when `Cc1nc(-c2nnn(C)c2COC(=O)N(C)CC2CCC2)c(F)cc1O[C@H]1CC[C@H](CC(=O)O)C1` (racemic) [Example 70, (±)-trans-2-[3-({6-[5-({[(cyclobutyl-methyl)(methyl)carbamoyl]oxy}methyl)-1-methyl-1H-1,2,3-triazol-4-yl]-5-fluoro-2-methyl-pyridin-3-yl}oxy)cyclopentyl]acetic acid] was run?
Answer: 220 nM

Question: How did the IC50 turn out when `CCC1(N(C)C(=O)OCc2c(-c3ccc(O[C@H]4CC[C@H](CC(=O)O)C4)c(C)n3)nnn2C)CC1` (racemic) [Example 58, (±)-trans-2-[3-({6-[5-({[(1-ethylcyclo-propyl)(methyl)carbamoyl]oxy}methyl)-1-methyl-1H-1,2,3-triazol-4-yl]-2-methylpyridin-3-yl}oxy)cyclo-pentyl]acetic acid] was run?
Answer: 479 nM

Question: Which IC50 does the source give for `CCCN(C)C(=O)OCc1c(-c2ccc(O[C@H]3CCC[C@H]3CC(=O)O)c(C)n2)nnn1C` (racemic) [Example 88, (±)-cis-2-(2-((2-methyl-6-(1-methyl-5-(((methyl(propyl)carbamoyl)oxy)methyl)-1H-1,2,3-triazol-4-yl)pyridin-3-yl)oxy)cyclopentyl)acetic acid] here?
Answer: 425 nM

Question: Which IC50 does the source give for `Cc1nc(-c2nnn(C)c2COC(=O)N(C)CC2CCC2)ccc1O[C@H]1CC[C@H](C(=O)O)C1` (racemic) [Example 75, (±)-trans-3-({6-[5-({[(cyclobutyl-methyl)(methyl)carbamoyl]oxy}methyl)-1-methyl-1H-1,2,3-triazol-4-yl]-2-methylpyridin-3-yl}oxy)cyclo-pentane-1-carboxylic acid] here?
Answer: 42.5 nM

Question: How did the IC50 turn out when `CCCN(C)C(=O)OCc1c(-c2ccc(O[C@H]3CC[C@H](CC(=O)O)C3)c(C)n2)nnn1C` (racemic) [Example 54, (±)-trans-2-[3-({2-methyl-6-[1-methyl-5-({[methyl(propyl)carba-moyl]oxy}methyl)-1H-1,2,3-triazol-4-yl]pyridin-3-yl}oxy)cyclopentyl]acetic acid] was run?
Answer: 292 nM
